Results: patent US7897401B2, “Control of apoptosis by controlling the propensity of ceramide channel formation” (University of Maryland, College Park, priority 2005, dated 2011)

Experiments:
Type in all cases: biochemical
[1] = tested on: ceramide channels in the mitochondrial outer membrane (MOM); experiment: Adenylate kinase release assay in isolated rat liver mitochondria
Method: The preparation yielded a mitochondrial suspension containing 10 mg of protein per mL. […] The mitochondria were then pelleted at 14,000 g for 5 min at 4° C. and the supernatant was kept on ice until assayed. […] The enzymes were added to the rest of the reaction mixture 1 min before the addition of the mitochondrial supernatant to allow a trace of ATP to be consumed. The activity of adenylate kinase was detected as an increase in absorbance at 340 nm. Since the activity of the kinase decays with time, even on ice, experiments were performed in sets and the activity of the first supernatant was assayed again at the end of the set. The values were fitted to a first order decay and all values within the set were corrected for the decay of the activity, based on the time delay before assay.
To determine the effect of sphingosine pretreatment on ceramide permeabilization of the mitochondrial outer membrane, mitochondria were incubated at room temperature in the presence of varying concentrations of sphingosine for […] before addition of ceramide and incubation for 10 min. Untreated mitochondria and mitochondria hypotonically lysed (20 μl into 1.2 ml water) served as negative and positive controls, respectively.
Experiments with C16-ceramide were performed in a similar way except as follows. The mitochondria were suspended in the above medium except that the 1 mM Tris buffer was replaced by 5 mM HEPES. To 1.0 mL of this medium at room temperature (RT) was added 17 μL of mitochondrial suspension that had been kept on ice at a concentration of 4 mg/mL. The final mitochondrial protein concentration during the experiment was 80 μg/mL. In the case of shocked mitochondria, the 1.0 mL of medium was replaced by water. Sphingosine was added, where appropriate, from a 0.25 mg/mL solution in DMSO. Typically 4-7 incubations were run in parallel. All samples were incubated for 5 min at RT. Then some samples received 0.4 mL of fatty acid depleted bovine serum albumin (BSA), 25 mg/mL, followed immediately by 20 μL of C16-ceramide dissolved in isopropanol at 2 mg/mL. After a 10-min incubation at RT, 10 μL of 4 mM PMSF was added followed by centrifugation. In these experiments 0.3 mL of mitochondrial supernatant was added to the adenylate kinase reaction mixture.

[2] = tested on: ceramide channels in liposomes; experiment: Liposome carboxyfluorescein release (ceramide channel formation in liposomes); settings: C16-ceramide 80 μg, liposomes 90 μg lipid
Method: The polar extract of soybean phospholipids (Avanti Polar Lipids, Alabaster, Ala.) and cholesterol (Sigma Chemical, St. Louis, Mo.) were mixed in a 93:7 molar ratio in chloroform and dried under nitrogen followed by drying in vacuo overnight. This mixture resembles the lipid content of mammalian mitochondrial outer membranes. Five mg of this mixture were dispersed in 1 mL of 39 mM NaCl, 6 mM DPX (Molecular Probes, Eugene, Oreg.), 1.5 mM carboxyfluorescein (Acros Organics, Geel, Belgium) and subjected to four freeze-thaw/sonication cycles. After extrusion through a 0.2 μm filter (Avanti Polar Lipids) for 13 passes it was run through a gel filtration column equilibrated and eluted with 50 mM NaCl, 10 mM HEPES, 1 mM EDTA, pH 7.0. The liposomes were used within 30 h. Twenty-five microliters of liposomes were dispersed into 2.0 mL of the elution buffer and placed into a quartz fluorescence cuvette. The fluorescence was monitored using a Deltascan Spectrofluorometer (Photon Technology Instruments, West Sussex, UK) using excitation at 495 nm and emission at 520 nm. Forty microliters of C16-ceramide (2 mg/mL of isopropanol) were added while stirring. Sphingosine was added from either a 1 mg/mL or a 0.1 mg/mL solution in DMSO.

[3] = tested on: ceramide channels; experiment: Screening for influence on ceramide channel formation in liposomes or planar membranes
Excerpt: In one embodiment, such methods comprise screening compounds for their ability to influence the formation of ceramide channels in liposomes or planar membranes. […] Such liposomes or planar membranes can be produced using any of a variety of lipids. Preferably, however, the constituents of the liposomes or planar membranes will be selected to mimic those of the MOM, or to have relevance to such membranes (see, Weissig, V. et al. (2006) “LIPOSOMES AND LIPOSOME-LIKE VESICLES FOR DRUG AND DNA DELIVERY TO MITOCHONDRIA,” J. Liposome Res. 16(3):249-264; Torchilin, V. P. (2006) “RECENT APPROACHES TO INTRACELLULAR DELIVERY OF DRUGS AND DNA AND ORGANELLE TARGETING,” Annu. Rev. Biomed. Eng. 8:343-375; Elrick, M. J. et al. (2006) “SPHINGOSINE, A PRODUCT OF CERAMIDE HYDROLYSIS, INFLUENCES THE FORMATION OF CERAMIDE CHANNELS,” Biophys. J. 1; 91(5):1749-1756; Bathori, G. et al. (2006) “CA2+-DEPENDENT CONTROL OF THE PERMEABILITY PROPERTIES OF THE MITOCHONDRIAL OUTER MEMBRANE AND VOLTAGE-DEPENDENT ANION-SELECTIVE CHANNEL (VDAC),” J. Biol. Chem. 281(25):17347-17358; Stiban, J. et al. (2006) “DIHYDROCERAMIDE HINDERS CERAMIDE CHANNEL FORMATION: IMPLICATIONS ON APOPIOSIS,” Apoptosis 11(5):773-780; Stover, T. C. et al. (2005) “SYSTEMIC DELIVERY OF LIPOSOMAL SHORT-CHAIN CERAMIDE LIMITS SOLID TUMOR GROWTH IN MURINE MODELS OF BREAST ADENOCARCINOMA,” Clin. Cancer Res. 11(9):3465-3474).

[4] = Ability of sphingolipids to form channels in membranes
Excerpt: The present invention establishes that sphingosine is capable of directly disassembling ceramide channels, thus proving the existence of this novel anti-apoptotic regulatory step. The ability of sphingosine, sphingosine-1-phosphate ([…]) and ceramide-1-phosphate the ability to form channels was investigated.

[5] = Protein (cytochrome c) release and metabolism of sphingosine in isolated mitochondria; settings: compound alone, maximum
[6] = observed in isolated mitochondria and liposome permeability assay

CCCCCCCCCCCCC/C=C/[C@@H](O)[C@@H](N)CO [sphingosine]
permeabilization of the MOM to adenylate kinase after removal of excess compound with BSA ([1]; 2.4 μg/mL for 5 min, then fatty acid depleted BSA, no ceramide added): release of adenylate kinase is evident
effect of preincubation on C16-ceramide permeabilization of the MOM and adenylate kinase release ([1]; 5 min preincubation, C16-ceramide 40 μg/mL, 10 min, low concentration potentiates, higher inhibits): biphasic relationship
sphingosine exposure giving essentially total inhibition of ceramide-dependent adenylate kinase release ([1]; 5 min pretreatment, then C2-ceramide 29 μg/mL for 10 min at room temperature, depends on batch of mitochondria): 0.3 to 0.6 µg/mL
release of adenylate kinase by compound alone ([1]; no ceramide, concentration range up to 6 μg/mL): did not induce the release of adenylate kinase
higher levels that strongly inhibited ceramide channel formation [1, 6]: 5 to 10 µM
low levels that stimulated ceramide induced permeabilization of the mitochondrial outer membrane to proteins [1, 6]: 1 to 2 µM
effect of pretreatment on C16-ceramide-induced carboxyfluorescein release from liposomes [2]: biphasic enhancement
concentration at which very potent inhibitor of ceramide channels [3]: 5 µM
ability to form channels [4]: produced real channels
release of cytochrome c from isolated mitochondria [5]: ≤ 15%
